Laboratory results as given in paper PMC12969314 (European journal of medicinal chemistry, 2022).

Legend:
[1] = Human liver microsomal intrinsic clearance; type: in vitro ADME; conditions: for CLint scaled / Predicted hepatic clearance hCLHEP: human; for CLint scaled: liver microsomes, Intrinsic clearance hCLINT; for Predicted hepatic clearance hCLHEP: well-stirred organ CL model, binding terms excluded
[2] = Mouse liver microsomal intrinsic clearance; type: in vitro ADME; conditions: for CLint scaled: liver microsomes; for Predicted hepatic clearance mCLHEP: well-stirred organ CL model, binding terms excluded
σ2 receptor = σ2 receptor (Homo sapiens, UniProt Q5BJF2); experiment: σ2 receptor radioligand binding, [3H]DTG, HEK293 membranes; conditions: ratio, σ1 over σ2
σ2 receptor, sequence (Q5BJF2 whole entry, species assumed): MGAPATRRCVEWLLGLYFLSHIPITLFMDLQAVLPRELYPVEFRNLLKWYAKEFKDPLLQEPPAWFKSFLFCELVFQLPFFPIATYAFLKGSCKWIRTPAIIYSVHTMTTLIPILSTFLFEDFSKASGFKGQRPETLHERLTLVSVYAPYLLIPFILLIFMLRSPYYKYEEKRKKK

[3] = Mouse plasma protein binding, equilibrium dialysis; type: in vitro ADME
D4 receptor = biological target: T1, D4 receptor (Homo sapiens, UniProt P21917); type: binding; conditions: for selectivity against the dopamine receptor family: σ1 over D1-5
T1 sequence (P21917 1-419): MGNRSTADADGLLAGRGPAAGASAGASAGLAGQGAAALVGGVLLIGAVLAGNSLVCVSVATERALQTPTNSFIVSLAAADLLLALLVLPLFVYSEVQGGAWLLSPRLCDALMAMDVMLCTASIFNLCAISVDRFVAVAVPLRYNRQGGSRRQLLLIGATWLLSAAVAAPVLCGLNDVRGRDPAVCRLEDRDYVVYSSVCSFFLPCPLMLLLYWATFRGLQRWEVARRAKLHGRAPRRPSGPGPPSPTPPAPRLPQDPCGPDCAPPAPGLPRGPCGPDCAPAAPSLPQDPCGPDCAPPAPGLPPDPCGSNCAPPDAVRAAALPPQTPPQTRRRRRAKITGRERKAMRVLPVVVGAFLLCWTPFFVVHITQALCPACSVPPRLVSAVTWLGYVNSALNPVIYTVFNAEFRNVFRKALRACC

DAT = DAT (Homo sapiens, UniProt Q01959); experiment: PDSP panel binding, DAT; conditions: for selectivity versus DAT: σ1 over DAT
DAT, sequence (Q01959 whole entry, species assumed): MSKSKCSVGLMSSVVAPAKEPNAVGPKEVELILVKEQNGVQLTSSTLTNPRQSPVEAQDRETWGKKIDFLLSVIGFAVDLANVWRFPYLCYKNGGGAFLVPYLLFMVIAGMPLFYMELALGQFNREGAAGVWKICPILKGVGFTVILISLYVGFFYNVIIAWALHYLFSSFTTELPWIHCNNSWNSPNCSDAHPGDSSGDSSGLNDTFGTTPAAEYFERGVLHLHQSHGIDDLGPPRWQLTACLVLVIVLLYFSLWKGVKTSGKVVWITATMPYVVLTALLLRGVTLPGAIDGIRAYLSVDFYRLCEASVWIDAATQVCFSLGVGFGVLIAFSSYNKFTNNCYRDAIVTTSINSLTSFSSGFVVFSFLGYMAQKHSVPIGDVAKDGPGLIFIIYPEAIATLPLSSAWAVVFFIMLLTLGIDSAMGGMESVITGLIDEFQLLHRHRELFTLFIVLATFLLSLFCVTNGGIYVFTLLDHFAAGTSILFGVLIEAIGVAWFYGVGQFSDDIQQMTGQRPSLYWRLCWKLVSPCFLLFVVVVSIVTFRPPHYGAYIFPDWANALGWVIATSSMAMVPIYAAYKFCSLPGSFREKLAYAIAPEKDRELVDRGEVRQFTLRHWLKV

Structure (SMILES)	CLint scaled ([1]; human liver microsomes)	Predicted hepatic clearance hCLHEP [1]	CLint scaled [2]	Predicted hepatic clearance mCLHEP [2]	also measured
COc1ccc(CN2CCC[C@H](OCc3ccc(C)cc3)C2)cc1F [Compound 19e, (S)-1-(3-fluoro-4-methoxybenzyl)-3-((4-methylbenzyl)oxy)piperidine]	1130 mL/min/kg	19.7 mL/min/kg	1190 mL/min/kg	83.7 mL/min/kg	–
Cc1cc(NC(=O)CN2CCC(OCc3ccc(F)c(F)c3)CC2)ccc1F [Compound 18d, 2-(4-((3,4-difluorobenzyl)oxy)piperidin-1-yl)-N-(4-fluoro-3-methylphenyl)acetamide]	–	14.3 mL/min/kg	–	69.6 mL/min/kg	selectivity σ1:σ2 (σ2 receptor): ~ 1.4; Stability in mouse plasma (mPPB column) [3]: c
Cn1cnc2cc(CN3CCC(OCc4ccc(Cl)c(F)c4)CC3)ccc21 [Compound 11b, 5-((4-((4-chloro-3-fluorobenzyl)oxy)piperidin-1-yl)methyl)-1-methyl-1H-benzo[d]imidazole]	< 20 mL/min/kg	<10 mL/min/kg	< 20 mL/min/kg	<16 mL/min/kg	–
Fc1ccc(COC2CCN(Cc3cc4ccc(Cl)cc4[nH]3)CC2)cc1F [Compound 14a, 6-chloro-2-((4-((3,4-difluorobenzyl)oxy)piperidin-1-yl)methyl)-1H-indole]	< 30 mL/min/kg	10.8 mL/min/kg	–	43.3 mL/min/kg	–
Cc1cc(NC(=O)CN2CCC3(CCCN3Cc3ccc(F)c(F)c3)C2)ccc1F (stereo not drawn) [Compound 24e, 2-(1-(3,4-difluorobenzyl)-1,7-diazaspiro[4.4]nonan-7-yl)-N-(4-fluoro-3-methylphenyl)acetamide]	–	–	–	–	Ki (D4 receptor): > 10 µM
Cc1ccc(CO[C@H]2CCCN(Cc3cccc(F)c3)C2)cc1 [Compound 19g, (S)-1-(3-fluorobenzyl)-3-((4-methylbenzyl)oxy)piperidine]	1400 mL/min/kg	19.8 mL/min/kg	> 2400 mL/min/kg	86.8 mL/min/kg	selectivity σ1:σ2 (σ2 receptor): 31; Ki (D4 receptor): > 10 µM; selectivity against the dopamine receptor family (D4 receptor): > 74 fold; Ki (DAT): 8.81 µM; selectivity versus DAT (DAT): 473
FC(F)(F)c1cccc(COC2CCN(Cc3cn4ccccc4n3)CC2)c1 [Compound 17c, 2-((4-((3-(trifluoromethyl)benzyl)oxy)piperidin-1-yl)methyl)imidazo[1,2-a]pyridine]	69.3 mL/min/kg	15.6 mL/min/kg	150 mL/min/kg	56.3 mL/min/kg	–
Fc1ccc(OC[C@@H]2CN(Cc3cn4ccccc4n3)CCO2)cc1F [Compound 17k, (S)-2-((3,4-difluorophenoxy)methyl)-4-(imidazo[1,2-a]pyridin-2-ylmethyl)morpholine]	42.1 mL/min/kg	13.6 mL/min/kg	321 mL/min/kg	70.3 mL/min/kg	–
Cc1c(Cl)cccc1NC(=O)CN1CCC(OCc2ccc(F)c(F)c2)CC1 [Compound 18a, N-(3-chloro-2-methylphenyl)-2-(4-((3,4-difluorobenzyl)oxy)piperidin-1-yl)acetamide]	–	17.6 mL/min/kg	–	68.6 mL/min/kg	–
COc1ccc(CN2CCC[C@H](OCc3ccc(F)c(C)c3)C2)cc1F [Compound 19a, (S)-3-((4-fluoro-3-methylbenzyl)oxy)-1-(3-fluoro-4-methoxybenzyl)piperidine]	964 mL/min/kg	19.7 mL/min/kg	> 2400 mL/min/kg	86.8 mL/min/kg	–
c1ccc(OC[C@@H]2CN(Cc3ccc4[nH]ccc4c3)CCO2)cc1 [Compound 4]	–	–	–	–	selectivity for D4 versus σ1 (D4 receptor; D4 over σ1): ~ 13 fold
Cn1ncc2cc(CN3CCC(OCc4ccc(Cl)c(F)c4)CC3)ccc21 [Compound 13b, 5-((4-((4-chloro-3-fluorobenzyl)oxy)piperidin-1-yl)methyl)-1-methyl-1H-indazole]	–	13.7 mL/min/kg	–	43.8 mL/min/kg	–
Fc1ccc(COC2CCN(Cc3cn4ccccc4n3)CC2)cc1F [Compound 17a, 2-((4-((3,4-difluorobenzyl)oxy)piperidin-1-yl)methyl)imidazo[1,2-a]pyridine]	–	<10 mL/min/kg	–	57.4 mL/min/kg	–
Fc1ccc(CN2CCCC3(CCN(Cc4cc5ccc(Cl)cc5[nH]4)C3)C2)cc1F (stereo not drawn) [Compound 25c, 2-((6-chloro-1H-indol-2-yl)methyl)-7-(3,4-difluorobenzyl)-2,7-diazaspiro[4.5]decane]	–	–	–	–	Ki (D4 receptor): > 10 µM
Cn1ncc2cc(CN3CCC(OCc4ccc(F)c(F)c4)CC3)ccc21 [Compound 13a, 5-((4-((3,4-difluorobenzyl)oxy)piperidin-1-yl)methyl)-1-methyl-1H-indazole]	–	12.5 mL/min/kg	–	48.2 mL/min/kg	–
Cn1ncc2cc(CN3CCC(OCc4cccc(C(F)(F)F)c4)CC3)ccc21 [Compound 13c, 1-Methyl-5-((4-((3-(trifluoromethyl)benzyl)oxy)piperidin-1-yl)methyl)-1H-indazole]	–	15.3 mL/min/kg	–	43.8 mL/min/kg	–
Fc1cc(COC2CCN(Cc3cn4ccccc4n3)CC2)ccc1Cl [Compound 17b, 2-((4-((4-chloro-3-fluorobenzyl)oxy)piperidin-1-yl)methyl)imidazo[1,2-a]pyridine]	–	13.8 mL/min/kg	–	46.7 mL/min/kg	–
Cc1c(Cl)cccc1NC(=O)CN1CCC2(CCCN2Cc2ccc(F)c(F)c2)CC1 [Compound 24a, N-(3-chloro-2-methylphenyl)-2-(1-(3,4-difluorobenzyl)-1,8-diazaspiro[4.5]decan-8-yl)acetamide]	–	–	–	–	Ki (D4 receptor): > 10 µM
c1cncc(COC2CCN(Cc3cn4ccccc4n3)CC2)c1 [Compound 17e, 2-((4-(pyridin-3-ylmethoxy)piperidin-1-yl)methyl)imidazo [1,2-a]pyridine]	–	–	–	–	Ki (D4 receptor): 2.29 µM
Cc1ccccc1CO[C@H]1CCCN(Cc2ccc3c(cnn3C)c2)C1 [Compound 13g, (S)-1-methyl-5-((3-((2-methylbenzyl)oxy)piperidin-1-yl)methyl)-1H-indazole]	334 mL/min/kg	19.0 mL/min/kg	545 mL/min/kg	77.3 mL/min/kg	–
Cc1cc(NC(=O)CN2CCC3(CCCN(Cc4ccc(F)c(F)c4)C3)C2)ccc1F (stereo not drawn) [Compound 24f, 2-(7-(3,4-difluorobenzyl)-2,7-diazaspiro[4.5]decan-2-yl)-N-(4-fluoro-3-methylphenyl)acetamide]	602 mL/min/kg	19.5 mL/min/kg	855 mL/min/kg	81.5 mL/min/kg	Ki (D4 receptor): > 10 µM; Stability in mouse plasma (mPPB column) [3]: c
Fc1cc(COC2CCN(Cc3ccc4[nH]ncc4c3)CC2)ccc1Cl [Compound 12b, 5-((4-((4-chloro-3-fluorobenzyl)oxy)piperidin-1-yl)methyl)-1H-indazole]	< 30 mL/min/kg	11.5 mL/min/kg	72 mL/min/kg	40.0 mL/min/kg	Intrinsic clearance hCLINT ([1]; human liver microsomes): 26.8 mL/min/kg
Cc1ccc(CO[C@H]2CCCN(Cc3ccc(C#N)cc3)C2)cc1 [Compound 19f, (S)-4-((3-((4-methylbenzyl)oxy)piperidin-1-yl)methyl) benzonitrile]	842 mL/min/kg	19.6 mL/min/kg	485 mL/min/kg	76.0 mL/min/kg	selectivity against the dopamine receptor family (D4 receptor): > 74 fold; selectivity versus DAT (DAT): 300
Cc1nc(CN2CCC(OCc3ccc(Cl)c(F)c3)CC2)c2ccccn12 [Compound 16b, 1-((4-((4-chloro-3-fluorobenzyl)oxy)piperidin-1-yl)methyl)-3-methylimidazo[1,5-a]pyridine]	130 mL/min/kg	17.4 mL/min/kg	199 mL/min/kg	62.0 mL/min/kg	–
